{"source": "patent US6080871A", "about": "“Sulfonamides and sulfamides as H3 receptor antagonists” (James Black Foundation Limited, priority 1996, dated 2000)", "data": [{"biological_target": "T1, H3 receptor (Cavia porcellus, UniProt Q9JI35)", "T1 construct": "the longitudinal muscle layer and adhering myenteric plexus was teased away; from tissue; host or cells: ileal longitudinal muscle with adhering myenteric plexus of male Dunkin-Hartley guinea pigs", "T1 sequence (Q9JI35 whole entry)": "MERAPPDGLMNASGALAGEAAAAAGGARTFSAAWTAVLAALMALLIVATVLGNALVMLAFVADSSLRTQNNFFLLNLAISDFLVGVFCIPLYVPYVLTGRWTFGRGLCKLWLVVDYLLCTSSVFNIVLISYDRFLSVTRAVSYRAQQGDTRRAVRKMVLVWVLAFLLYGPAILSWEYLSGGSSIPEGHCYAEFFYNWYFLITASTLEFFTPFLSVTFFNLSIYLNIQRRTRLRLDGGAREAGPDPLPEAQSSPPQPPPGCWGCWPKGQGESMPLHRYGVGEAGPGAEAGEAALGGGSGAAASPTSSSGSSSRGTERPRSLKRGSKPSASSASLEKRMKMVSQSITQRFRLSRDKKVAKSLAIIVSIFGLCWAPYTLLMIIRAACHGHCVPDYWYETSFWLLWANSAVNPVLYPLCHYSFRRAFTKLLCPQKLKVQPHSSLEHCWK", "experiment": "H3 receptor bioassay (functional assay), guinea pig ileal longitudinal muscle myenteric plexus", "assay_type": "cell-based", "details": "antagonism of R-(α)-methylhistamine E/[A] curve, Schild's methods; electrically stimulated guinea pig ileum; variance ±0.15 log units", "method": "(§1) The biological activity of the compounds of the examples was measured using the ileal longitudinal muscle, myenteric plexus assay described by Paton and Aboo Zar (J. Physiol. 194, 13-33 (1968)). Male Dunkin-Hartley guinea pigs (250-300 g) were employed. Briefly, a 50 cm portion of ileum proximal to the caecum was removed, after discarding the terminal 20 cm. Ileal segments (3 cm) were cleaned by passing Krebs-Henseleit buffer containing 3 μM mepyramine gently through the ileum using a Pasteur pipette (size: 13.8 cm length, 0.65 cm diameter). To avoid unnecessary damage to the tissue, Krebs-Henseleit buffer was passed through the ileal segment, while it was lying horizontally on a petri dish. Therefore, the ileum was not over-distended and the buffer flowed through with ease. Each segment was then passed over a Pasteur pipette and the longitudinal muscle layer and adhering myenteric plexus was teased away using moist cotton wool, by stroking tangentially away from the mesenteric attachment. The tissues were suspended in 20 ml organ baths containing Krebs-Henseleit buffer at 37±1° C. and gassed with […]. The tissues were ligated to two parallel stainless steel wires, situated between two platinum electrodes (0.76 cm length, 0.06 cm diameter). All measurements were recorded isometrically (Grass FTO3 transducer). Following an initial loading tension of 1 g, the tissues were stimulated with electrical pulses at a frequency of 0.1 Hz and a pulse duration of 0.5msec, as described by Kosterlitz & Watt (1968). Initially, the tissues were stimulated at supramaximal (1.3 fold times maximal) voltage for a period of 30 min and then the tissues were washed and re-stimulated. A \"sighter dose\" of the selective histamine H3 -receptor agonist, R-(α)-methylhistamine(0.3 μM) (Arrang et al., 1987), was administered. Upon generation of response, the \"sighter dose\" was removed from the tissues by \"washout\" (6 washes over 60 min) and during this period the electrical stimulation was switched off. The tissues were then re-stimulated and allowed to stabilise prior to the addition of drug treatments, which were allocated on a randomised block basis to the organ baths. Following the incubation period, a single cumulative E/[A] curve was obtained. The experimental E/[A] curve data was expressed as the percentage inhibition of the peak height of electrically-stimulated contraction. Antagonist affinity values were calculated from the degree of rightward shift of the R-(α)-methylhistamine E/[A] curves using Schild's methods (Arunlatcshama & Schild, 1949).\n(§2) Typical variance in the functional assay is ±0.15 log units. Typical variance in the binding assay is ±0.12 log units. This means that if the discrepancy between the two assays is greater than about 0.5 log units, then this difference on average is significant.", "values": [{"smiles": "O=S(=O)(NCCc1c[nH]cn1)NCc1ccccc1", "note": "[Example 35, N-[2-(4(5)-Imidazoyl)ethyl]-N'-phenylmethyl-sulfamide]", "pKB (functional assay)": 5.59}]}, {"biological_target": "T1, H3 receptor", "experiment": "H3 receptor bioassay (functional assay), guinea pig ileal longitudinal muscle myenteric plexus", "assay_type": "cell-based", "details": "antagonism of R-(α)-methylhistamine E/[A] curve, Schild's methods; electrically stimulated guinea pig ileum; variance ±0.15 log units; read-out: pKB (functional assay) (converted)", "method": "as §1, §2", "units": {"Kb": "nM"}, "values": [{"smiles": "O=S(=O)(N[C@@H]1C[C@H]1c1c[nH]cn1)c1ccc2ccccc2c1", "note": "(relative stereo) [Example 72, N-[2-(4(5)-Imidazoyl)-trans-cyclopropyl]-2-naphthalenesulfonamide]", "Kb": 955}, {"smiles": "O=S(=O)(NCCc1c[nH]cn1)c1ccccc1", "note": "[Example 2, N-[2-(4(5)-Imidazoyl)ethyl]-benzenesulfonamide]", "Kb": 2400}, {"smiles": "O=S(=O)(NCCc1c[nH]cn1)c1cccc2ccccc12", "note": "[Example 3, N-[2-(4(5)-Imidazoyl)ethyl]-1-naphthalenesulfonamide]", "Kb": 537}, {"smiles": "O=S(=O)(CCCC1CCCCC1)NCCc1c[nH]cn1", "note": "[Example 4, N-[2-(4(5)-Imidazoyl)ethyl]-3-cyclohexylpropanesulfonamide]", "Kb": 398}, {"smiles": "O=S(=O)(NCCc1c[nH]cn1)c1ccc(Cl)c(Cl)c1", "note": "[Example 16, N-[2-(4(5)-Imidazoyl)ethyl]-3,4-dichlorobenzenesulfonamide]", "Kb": 170}, {"smiles": "O=S(=O)(CCc1ccccc1)NCCc1c[nH]cn1", "note": "[Example 17, N-[2-(4(5)-Imidazoyl)ethyl]-2-phenylethanesulfonamide]", "Kb": 447}, {"smiles": "O=S(=O)(CCCc1ccccc1)NCCc1c[nH]cn1", "note": "[Example 18, N-[2-(4(5)-Imidazoyl)ethyl]-3-phenylpropanesulfonamide]", "Kb": 162}, {"smiles": "O=S(=O)(Cc1ccc(Cl)cc1)NCCCc1c[nH]cn1", "note": "[Example 26, N-[3-(4(5)-Imidazoyl)propyl]-(4-chlorophenyl)methanesulfonamide]", "Kb": 513}, {"smiles": "O=S(=O)(NCCCc1c[nH]cn1)c1ccccc1", "note": "[Example 27, N-[3-(4(5)-Imidazoyl)propyl]-benzenesulfonamide]", "Kb": 7760}, {"smiles": "O=S(=O)(NCCCc1c[nH]cn1)c1ccc2ccccc2c1", "note": "[Example 28, N-[3-(4(5)-Imidazoyl)propyl]-2-naphthalenesulfonamide]", "Kb": 4070}, {"smiles": "O=S(=O)(NCCCc1c[nH]cn1)NCc1ccccc1", "note": "[Example 36, N-[3-(4(5)-Imidazoyl)propyl]-N'-phenylmethyl-sulfamide]", "Kb": 692}, {"smiles": "O=S(=O)(NCCc1c[nH]cn1)NCc1ccc(Cl)cc1", "note": "[Example 37, N-[2-(4(5)-Imidazoyl)ethyl]-N'-(4-chlorophenyl)methyl-sulfamide]", "Kb": 1950}, {"smiles": "COC(=O)[C@H](Cc1c[nH]cn1)NS(=O)(=O)c1ccc2ccccc2c1", "note": "[Example 73, 3-(4(5)-Imidazoyl)-2S-(2-naphthalene)sulfonamino-propionic Acid Methyl Ester]", "Kb": 10200}, {"smiles": "O=S(=O)(Cc1ccc(-c2ccccc2)cc1)NCCCCc1c[nH]cn1", "note": "[Example 84, N-[4-(4(5)-Imidazoyl)butyl]-(4-biphenyl)methanesulfonamide]", "Kb": 7.94}, {"smiles": "CN(CCCCc1c[nH]cn1)S(=O)(=O)CCc1ccc(Cl)cc1", "note": "[Example 85, N-[4-(4(5)-Imidazoyl)butyl]-N-methyl-2-(4-chlorophenyl)ethanesulfonamide]", "Kb": 8.91}]}, {"biological_target": "T1, H3 receptor", "experiment": "H3 receptor bioassay (functional assay), guinea pig ileal longitudinal muscle myenteric plexus", "assay_type": "cell-based", "details": "guinea pig; printed beside 4.99 in the line of Example 73; read-out: α (functional assay)", "method": "as §1, §2", "units": {"Emax": "%"}, "values": [{"smiles": "COC(=O)[C@H](Cc1c[nH]cn1)NS(=O)(=O)c1ccc2ccccc2c1", "note": "[Example 73, 3-(4(5)-Imidazoyl)-2S-(2-naphthalene)sulfonamino-propionic Acid Methyl Ester]", "Emax": "~20"}]}]}
